“And” between values parts separate entries of the source, which are not always exact repeats. Equal entries are not always repeated.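 Dose response: 5 concentrations. Exposure: 48 h. Format: 96-well plates. Endpoint: linear interpolation; highest concentration if not reached. GI50 is the concentration that inhibits growth by half. The concentration for full growth arrest is given as TGI.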
Tests used:
Experiment in all cases: NCI-60 cell line screen, 48 h
[1] = test system: LOX IMVI melanoma
[2] = test system: SNB-75 CNS
[3] = test system: HOP-92 NSCLC
[4] = test system: SF-268 CNS
[5] = test system: HCC-2998 colon
[6] = test system: TK-10 renal
[7] = test system: OVCAR-5 ovarian
[8] = test system: HCT-15 colon
[9] = test system: SF-295 CNS
[10] = test system: BT-549 breast

| SMILES | TGI [1] [µM] | TGI [2] [µM] | TGI [3] | TGI [4] | TGI [5] | TGI [6] | TGI [7] | TGI [8] | TGI [9] | GI50 [1] [µM] | GI50 [2] [µM] | GI50 [3] | GI50 [4] | GI50 [5] | GI50 [6] | GI50 [7] [µM] | GI50 [8] [µM] | GI50 [9] [µM] | GI50 [10] [µM] | TGI [10] |
| --- | --- | --- | --- | --- | --- | --- | --- | --- | --- | --- | --- | --- | --- | --- | --- | --- | --- | --- | --- | --- |
| OCC(O)COc1c(Cl)ccc(Cl)c1Cl (stereo not drawn) | > 100 | > 100 | > 100 µM | > 100 µM | > 100 µM | > 100 µM | > 100 µM | > 100 µM | > 100 µM |  |  |  |  |  |  |  |  |  |  |  |
| COc1ccc2[nH]c(-c3cccc(N(C)C)c3)cc(=O)c2c1 |  | 50.2 |  | 33.7 µM | 3.29 µM and 2.29 µM | > 100 µM | > 100 µM |  |  | 0.599 | 0.371 | 3.25 µM | 0.657 µM | 0.472 µM | 19.8 µM | 0.784 | 0.374 | 3.71 |  |  |
| Fc1ccc(F)c(C2SCc3nc4ccccc4n32)c1 (stereo not drawn) | > 100 | > 100 | > 100 µM | > 100 µM | > 100 µM | > 100 µM | > 100 µM | > 100 µM | > 100 µM |  |  |  |  |  |  |  |  |  |  |  |
| COc1ccc(/C=C/c2nc(=S)[nH][nH]2)cc1 | > 100 | > 100 | > 100 µM | > 100 µM | > 100 µM | > 100 µM | > 100 µM | > 100 µM | > 100 µM |  |  |  |  |  |  |  |  |  |  |  |
| N#CCC(=O)N/N=C1/C(=O)NC(=O)C(=O)C1c1nc2ccccc2s1 (stereo not drawn) | > 100 | > 100 | > 100 µM | > 100 µM | > 100 µM | > 100 µM | > 100 µM | > 100 µM | > 100 µM |  |  |  |  |  |  |  |  |  |  |  |
| COc1ccc(CCNCc2cccc(OC)c2OC)cc1OC | > 100 | > 100 | > 100 µM | > 100 µM | > 100 µM | > 100 µM | > 100 µM | > 100 µM | > 100 µM |  |  |  |  |  |  |  |  |  |  |  |
| CC(C)CC(CNC(Cc1ccc(Cl)cc1)C(N)=O)NC(=O)C(Cc1cnc[nH]1)NC(=O)CNC(=O)C(NC(=O)C(C)NC(=O)C(Cc1c[nH]c2ccccc12)NC(=O)C(CCC(=O)O)NC(=O)C(N)Cc1ccccc1)C(C)C (stereo not drawn) |  | > 133 | < 0.0133 µM |  | > 133 µM |  |  | > 133 µM | > 133 µM |  |  |  |  |  |  |  |  |  |  |  |
| CC(=O)OCC(OC(C)=O)C(OC(C)=O)C(OC(C)=O)C(=O)CNn1c(-c2ccccc2)nc2ccc(Br)cc2c1=O (stereo not drawn) | > 100 | > 100 |  | > 100 µM |  |  | > 100 µM | > 100 µM | > 100 µM |  |  |  |  |  |  |  |  |  |  |  |
| O=C(CCc1ccccc1)On1nnc2ccccc2c1=O | > 100 | > 100 | > 100 µM | > 100 µM | > 100 µM | 96.2 µM | > 100 µM | > 100 µM | > 100 µM |  |  |  |  |  |  |  |  |  |  |  |
| O=C(CCC(=O)N/N=C/c1ccccc1O)N/N=C/c1ccccc1O |  | 31.7 | 56.7 µM | 52.4 µM | > 100 µM | > 100 µM | > 100 µM | > 100 µM | > 100 µM |  |  |  |  |  |  |  |  |  |  |  |
| O=C1OC(c2ccccc2)=N/C1=C\c1c(O)cc(O)cc1O | > 100 | > 100 | > 100 µM | > 100 µM |  | > 100 µM | > 100 µM | > 100 µM |  |  |  |  |  |  |  |  |  |  |  |  |
| CS(=O)c1ccc(-c2nc(-c3ccc(F)cc3)c(-c3ccncc3)[nH]2)cc1 (stereo not drawn) |  | > 100 | > 100 µM | > 100 µM | > 89.7 µM | > 78.1 µM | > 100 µM | > 100 µM | > 71.6 µM |  | > 44.6 | 28.8 µM | 49.4 µM | 33.6 µM | 24.3 µM | 55 | 30.2 | 29.1 | 21 | 72.4 µM |
| CCOC(=O)c1c(C)n(CC(C)C)c2c1cc1oc(=O)c(=O)n3cnc2c13 | 16 | > 50 | 43.4 µM | > 50 µM |  | 47.6 µM | > 50 µM | > 50 µM | 33 µM | 8.45 | 12.5 | 14.5 µM | 18 µM |  | 13.3 µM | 29.6 | 15.2 | 12.8 | 15.7 | 43 µM |
| O=[N+]([O-])c1cc(Cl)cc2c1nc(NCCO)c1ccccc12 | > 100 | > 81.7 | > 88 µM | > 100 µM |  | > 60.5 µM | > 63 µM | > 100 µM | > 100 µM |  |  |  |  |  |  |  |  |  |  | > 82.1 µM |
| CN1CCN(Cc2ccc(NC(=O)c3[nH]ncc3Nc3ncnc4sccc34)cc2)CC1 | 1.07 | 2.3 |  | 3.73 µM |  | 19.6 µM | > 100 µM | > 100 µM | > 100 µM | 0.213 | 0.023 |  | 0.446 µM |  | 2.16 µM | 0.508 | 0.254 | 0.325 | 1.23 | 5.56 µM |
| Oc1ccc(/C=N/Nc2nc3ccccc3s2)c(O)c1 | 28.8 | 9.96 | > 100 µM | > 100 µM | 19.4 µM | 45.2 µM | 21 µM | 20.6 µM | 35.4 µM | 3.27 | 1.51 | 4.46 µM | 1.11 µM | 3.76 µM | 2.1 µM | 2.59 | 0.734 | 2.86 |  |  |
| COc1cc(OC)c(OC)cc1/C=C1\C=Cc2ccccc21 | 33.4 |  |  | > 100 µM | 28.4 µM | 80 µM | > 100 µM | 61.4 µM | 57.6 µM |  |  |  |  |  |  |  |  |  |  |  |
| CC(C)c1cc(CNc2nc(Nc3cc(C4CC4)[nH]n3)cc(N3CCN(C)CC3)n2)on1 |  |  | 0.821 µM and 0.182 µM | > 10 µM and 2.25 µM | > 10 µM and 6.39 µM | 4.19 µM and 5.52 µM | > 10 µM and 3.91 µM | > 10 µM and 8.47 µM | > 10 µM and 2.77 µM |  |  | 0.16 µM and 0.0273 µM | 1.7 µM and 0.277 µM | 2.79 µM and 0.343 µM | 0.53 µM and 0.277 µM |  |  |  |  | > 10 µM and 1.4 µM |
| Cc1cccc2c1Oc1cc(Cl)ccc1C2NC(=O)CN(C)C (stereo not drawn) | > 100 | 68.8 |  | > 100 µM | > 100 µM | > 100 µM | > 100 µM | > 100 µM |  |  |  |  |  |  |  |  |  |  |  |  |
| Cc1[nH]c(=O)nc(CC(O)(c2ccccc2)c2ccccc2)c1-c1ccccc1 | > 100 | > 100 | > 100 µM | > 100 µM | > 100 µM | > 100 µM | > 100 µM | > 100 µM | > 100 µM |  |  |  |  |  |  |  |  |  |  |  |
| COC1(OC)CC2C(=O)N(Cc3ccccc3)C1CC2S(=O)(=O)c1ccccc1 (stereo not drawn) | > 100 | > 100 |  |  |  | > 100 µM |  | > 100 µM | > 100 µM |  |  |  |  |  |  |  |  |  |  |  |
